These compounds were tested on paw of rats (assay: Anti-inflammatory test: carrageenan-induced rat paw swelling (plethysmography), oral). Conditions: oral route one hour before carrageenan injection, swelling determined 4 hours after injection, versus control group, dose not given.
Format: in vivo
Experimental: The compounds to be tested are given as freshly prepared solutions or suspensions by oral route one hour before injecting the paw of rats with carrageenan which is a known inflammatory agent.
The inflammatory agent (carrageenan) either in solution or suspension is then injected into the plantar tissue of the right hind paw of each rat, the left paw remaining untreated and serving as control. Each animal receives, for example, 0.05 ml of an aqueous solution containing 1% by weight of carrageenan and 0.9% of sodium chloride.
4 Hours after the injection of the inflammatory agent, the importance of swelling is determined by plethysmography and is expressed as a percent of the volume of the control paw.
The anti-inflammatory effect expressed as a percentage of inhibition is obtained by comparison between rats treated with the anti-inflammatory compound and a control group of rats.

Structure (SMILES)	% inhibition of acute oedema [%]
CCc1cccc(N2C(c3ccc(Cl)cc3)=NS(=O)(=O)c3cnccc32)c1 [Example 3, 3-parachlorophenyl-4-(3'-ethylphenyl)-4H-pyrido-[4,3-e]-1,2,4-thiadiazine-1,1-dioxide]	60
O=S1(=O)N=C(c2ccccc2)N(c2cccc(C(F)(F)F)c2)c2ccncc21 [Example 1, 3-phenyl-4-metatrifluoromethylphenyl-4H-pyridino-[4,3-e]-1,2,4-thiadiazine-1,1-dioxide]	53.6
O=S1(=O)N=C(c2ccc(Cl)cc2)N(c2cc(Cl)cc(Cl)c2)c2ccncc21 [Example 2, 3-parachlorophenyl-4-(3',5'-dichlorophenyl)-4H-pyridino-[4,3-e]-1,2,4-thiadiazine-1,1-dioxide]	57
COc1cccc(N2C(c3ccccc3Cl)=NS(=O)(=O)c3cnccc32)c1 [Example 4, 3-orthochlorophenyl-4-(3-methoxyphenyl)-4H-pyrido-[4,3-e]-1,2,4-thiadiazine-1,1-dioxide]	40
